The text below walks through data of patent US7473699B2, “3-cyclyl-5-(nitrogen-containing 5-membered ring)methyl-oxazolidinone derivatives and their use as antibacterial agents” (AstraZeneca AB, priority 2002, dated 2009).

The subject of assay [1] is Staphylococcus aureus MRQR. As to the kind of experiment: MIC, agar-dilution, Staphylococcus aureus MRQR. It counts as cell-based. The conditions noted are these: Staphylococcus aureus MRQR (methicillin resistant and quinolone resistant). The method, then:
(§1) The following results were obtained on a standard in-vitro test system. The activity is described in terms of the minimum inhibitory concentration (MIC) determined by the agar-dilution technique with an inoculum size of 10^4 CFU/spot. Typically, compounds are active in the range 0.01 to 256 μg/ml.
(§2) Staphylococci were tested on agar, using an inoculum of 10^4 CFU/spot and an incubation temperature of 37° C. for 24 hours—standard test conditions for the expression of methicillin resistance.

Assay [2] relates to Streptococcus pyogenes. As to the kind of experiment: MIC, agar-dilution, Streptococcus pyogenes. Format: cell-based. The method, then: as §1
(§3) Streptococci and enterococci were tested on agar supplemented with 5% defibrinated horse blood, an inoculum of 10^4 CFU/spot and an incubation temperature of 37° C. in an atmosphere of 5% carbon dioxide for 48 hours—blood is required for the growth of some of the test organisms. Fastidious Gram negative organisms were tested in Mueller-Hinton broth, supplemented with hemin and NAD, grown aerobically for 24 hours at 37° C., and with an innoculum of 5×10^4 CFU/well.

In assay [3] the test system is Haemophilus influenzae. Briefly: MIC, fastidious Gram negative organisms in Mueller-Hinton broth, Haemophilus influenzae. It counts as cell-based. As to the method:
as §1, §3

The subject of assay [4] is Streptococcus pneumoniae. As to the kind of experiment: MIC, agar-dilution, Streptococcus pneumoniae. It counts as cell-based. The method, then: as §1, §3
Assay [5] concerns Moraxella catarrhalis. Briefly: MIC, fastidious Gram negative organisms in Mueller-Hinton broth, Moraxella catarrhalis. It counts as cell-based. The method, then: as §1, §3
For assay [6], the target named is T1, MAO-A (Homo sapiens, UniProt P21397).
T1 construct: made in house; host or cells: yeast
T1 sequence (P21397 1-527): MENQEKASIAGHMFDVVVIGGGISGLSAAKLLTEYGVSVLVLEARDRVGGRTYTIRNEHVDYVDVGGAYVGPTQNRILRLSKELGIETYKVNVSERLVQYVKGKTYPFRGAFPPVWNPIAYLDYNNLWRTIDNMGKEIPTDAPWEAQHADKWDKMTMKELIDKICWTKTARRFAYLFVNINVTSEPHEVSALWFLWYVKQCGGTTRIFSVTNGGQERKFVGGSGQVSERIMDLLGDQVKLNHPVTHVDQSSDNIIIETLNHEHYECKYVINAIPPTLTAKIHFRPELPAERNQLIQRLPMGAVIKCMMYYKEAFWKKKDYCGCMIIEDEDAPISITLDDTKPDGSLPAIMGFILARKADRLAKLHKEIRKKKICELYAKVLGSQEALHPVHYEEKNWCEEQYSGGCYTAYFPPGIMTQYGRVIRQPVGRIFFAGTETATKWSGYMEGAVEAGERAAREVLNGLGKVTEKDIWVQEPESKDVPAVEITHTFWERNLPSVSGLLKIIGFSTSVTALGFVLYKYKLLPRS
As to the kind of experiment: MAO-A standard in-vitro assay, human liver enzyme expressed in yeast. Format: biochemical. The method, then:
The activity of the compounds of the invention against MAO-A was tested using a standard in-vitro assay based on human liver enzyme expressed in yeast as described in Biochem. Biophys. Res. Commun. 1991, 181, 1084-1088. Ki values were determined using serial two-fold dilutions from […] to 0.04 μM.

The test system of assay [7] is Staphylococcus aureus MSQS. As to the kind of experiment: MIC, agar-dilution, Staphylococcus aureus MSQS. It counts as cell-based. The conditions noted are these: Staphylococcus aureus MSQS (methicillin sensitive and quinolone sensitive). The method, then: as §1, §2
Setting [8] is: first line (strain not given), read-out: MIC.

SMILES strings stand for the structures. ≈ marks a conversion by molar mass, not a printed value. Where two headings read alike, the source gives them in different places.

As usually defined, the Ki is the equilibrium dissociation constant of an inhibitor or competing ligand from its target. Read a high Ki as a looser hold on the target. Regarding `O=C1O[C@@H](Cn2ccnn2)CN1c1ccc(C2=CC[S+]([O-])CC2)c(F)c1` (some centres unmarked) [Reference Example 1], the MIC was 2 µg/mL (≈ 5.31 µM) in assay [1]; 1 µg/mL (≈ 2.66 µM) in assay [2]; 4 µg/mL (≈ 10.6 µM) in assay [3]; 1 µg/mL (≈ 2.66 µM) in assay [4] (setting [8]); 1 µg/mL (≈ 2.66 µM) in assay [4] (second line (strain not given)); 2 µg/mL (≈ 5.31 µM) in assay [5]. The compound also registered an MIC in assay [7] of 2 µg/mL (≈ 5.31 µM). The compound also returned an inhibition constant Ki in assay [6] of 3.6 µM.
With `Cc1cn(C[C@H]2CN(c3ccc(C4=CC[S+]([O-])CC4)c(F)c3)C(=O)O2)nn1` (mixture of isomers) [Example 1, (5R)-3-[4-(1(R,S)-Oxo-3,6-dihydro-2H-thiopyran-4-yl)-3-fluorophenyl]-5-[(4-methyl)-1,2,3-triazol-1-ylmethyl]oxazolidin-2-one], the MIC amounted to 4 µg/mL in assay [1]; 1 µg/mL in assay [2]; 2 µg/mL in assay [3]; 0.5 µg/mL in assay [4] (setting [8]); 0.5 µg/mL in assay [4] (second line (strain not given)); 2 µg/mL in assay [5]. Besides, the MIC in assay [7] turned out to be 2 µg/mL. This compound registered a Ki in assay [6] of 16 µM.
Consider `CC(=O)NC[C@H]1CN(c2ccc(C3=CC[S+]([O-])CC3)c(F)c2)C(=O)O1` (some centres unmarked) [Reference Example 2], for which the inhibition constant (Ki) in assay [6] is 0.5 µM.
